Results taken from US8987256B2, “Oxo-heterocyclic substituted carboxylic acid derivatives and the use thereof” (Bayer Intellectual Property GmbH, priority 2008, dated 2015).
pEC50: −log10 of the molar value.

Key:
[1] = molecular target: T1, recombinant guanylate cyclase reporter cell line (Rattus norvegicus, UniProt P20595); experiment: sGC-activating activity in the CHO reporter cell in vitro; format: cell-based
T1 construct: expressed in transfected cells; host or cells: CHO reporter cell line
T1 sequence (P20595 1-619): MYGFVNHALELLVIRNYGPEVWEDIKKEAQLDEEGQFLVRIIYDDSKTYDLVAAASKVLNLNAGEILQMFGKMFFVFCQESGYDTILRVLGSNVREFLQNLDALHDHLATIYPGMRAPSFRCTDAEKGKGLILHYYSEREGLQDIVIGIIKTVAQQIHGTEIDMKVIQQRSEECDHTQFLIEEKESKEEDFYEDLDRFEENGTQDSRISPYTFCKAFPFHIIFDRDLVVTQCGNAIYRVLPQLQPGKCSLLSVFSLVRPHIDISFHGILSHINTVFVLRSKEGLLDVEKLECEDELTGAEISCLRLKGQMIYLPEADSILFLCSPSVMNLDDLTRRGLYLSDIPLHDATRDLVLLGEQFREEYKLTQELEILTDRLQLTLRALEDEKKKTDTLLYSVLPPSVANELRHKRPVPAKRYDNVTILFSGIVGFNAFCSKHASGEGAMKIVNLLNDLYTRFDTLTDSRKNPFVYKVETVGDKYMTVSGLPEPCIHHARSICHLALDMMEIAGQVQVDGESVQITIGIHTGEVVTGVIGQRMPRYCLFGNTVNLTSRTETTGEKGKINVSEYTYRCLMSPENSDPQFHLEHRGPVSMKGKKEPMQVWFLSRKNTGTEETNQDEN
T1 sequence (P19686 1-690 partner): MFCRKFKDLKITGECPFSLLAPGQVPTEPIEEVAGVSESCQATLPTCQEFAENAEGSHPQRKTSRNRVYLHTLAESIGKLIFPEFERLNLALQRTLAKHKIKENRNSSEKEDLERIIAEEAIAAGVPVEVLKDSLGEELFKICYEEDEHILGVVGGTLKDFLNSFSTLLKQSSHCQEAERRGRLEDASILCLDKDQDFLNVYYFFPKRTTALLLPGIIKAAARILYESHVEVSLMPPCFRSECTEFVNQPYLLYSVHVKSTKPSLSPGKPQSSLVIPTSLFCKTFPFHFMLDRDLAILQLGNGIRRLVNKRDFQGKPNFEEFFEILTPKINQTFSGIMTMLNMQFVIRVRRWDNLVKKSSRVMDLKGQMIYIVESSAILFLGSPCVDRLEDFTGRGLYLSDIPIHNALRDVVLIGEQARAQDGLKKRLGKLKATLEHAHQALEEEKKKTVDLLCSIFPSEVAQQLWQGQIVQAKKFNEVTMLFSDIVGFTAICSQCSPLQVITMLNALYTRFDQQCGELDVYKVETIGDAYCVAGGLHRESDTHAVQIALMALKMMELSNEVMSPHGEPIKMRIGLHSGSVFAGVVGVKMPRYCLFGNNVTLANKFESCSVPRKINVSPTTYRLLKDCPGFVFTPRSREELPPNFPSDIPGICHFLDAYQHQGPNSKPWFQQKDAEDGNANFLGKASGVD
Protocol: The cellular action of the compounds according to the invention is determined at a recombinant guanylate cyclase reporter cell line, as described in F. Wunder et al., Anal. Biochem. 339, 104-112 (2005).

[2] = molecular target: T2, soluble guanylate cyclase (sGC) (Rattus norvegicus, UniProt P20595); experiment: Activating action at the sGC enzyme in vitro (PPi detection, luciferase); format: biochemical; settings: for pEC50: read-out: EC50 (concentration at 50% of maximum efficacy), activating action at the sGC enzyme
T2 construct: made in house; host or cells: baculovirus/Sf9 insect cells
T2 sequence (P20595 1-619): T1 sequence (P20595 1-619)
T2 sequence (P19686 1-690 partner): T1 sequence (P19686 1-690 partner)
Protocol: Soluble guanylate cyclase (sGC) converts on stimulation GTP into cGMP and pyrophosphate (PPi). PPi is detected with the aid of the assay described below. The signal produced in the assay increases as the reaction progresses and serves as a measure of the sGC enzyme activity under the given stimulation.
To carry out the assay, 29 μl of enzyme solution [0-10 nM soluble guanylate cyclase (prepared according to Honicka et al., J. Mol. Med. 77, 14-23 (1999)) in 50 mM TEA, 2 mM MgCl2, 0.1% BSA (fraction V), 0.005% Brij®, pH 7.5] are initially introduced into a microplate, and 1 μl of the substance to be tested (as a serially diluted solution in DMSO) is added. The mixture is incubated at room temperature for 10 min. Then 20 μl of detection mix [1.2 nM Firefly Luciferase (Photinus pyralis luciferase, Promega), 29 μM dehydroluciferin (prepared according to Bitler & McElroy, Arch. Biochem. Biophys. 72, 358 (1957)), 122 μM luciferin (Promega), 153 μM ATP (Sigma) and 0.4 mM DTT (Sigma) in 50 mM TEA, 2 mM MgCl2, 0.1% BSA (fraction V), 0.005% Brij®, pH 7.5] are added. The enzyme reaction is started by adding 20 μl of substrate solution [1.25 mM guanosine 5′-triphosphate (Sigma) in 50 mM TEA, 2 mM MgCl2, 0.1% BSA (fraction V), 0.005% Brij®, pH 7.5] and measured continuously in a luminometer. The extent of the stimulation by the substance to be tested can be determined relative to the signal of the unstimulated reaction.
The activation of heme-free guanylate cyclase is examined by addition of 25 μM of 1H-1,2,4-oxadiazolo[4,3-a]quinoxalin-1-one (ODQ) to the enzyme solution and subsequent incubation for 30 minutes and compared to the stimulation of the native enzyme.

SMILES	MEC (minimum effective concentration), sGC-activating activity in the CHO reporter cell [1]	MEC (minimum effective concentration), activating action at the sGC enzyme [2]	pEC50 [2]
O=C(O)c1ccc(CNC(=O)C(c2ccc(Cn3nc(-c4ccc(Cl)cc4)c4ccccc4c3=O)cc2)C2CCCC2)cc1 (racemic) [Example 1, 4-({[(4-{[4-(4-Chlorophenyl)-1-oxophthalazin-2(1H)-yl]methyl}phenyl)(cyclopentyl)acetyl]-amino}methyl)benzenecarboxylic acid]	10 nM		
O=C(O)c1ccc(CNC(=O)C(c2ccc(Cn3nc(-c4ccc(Cl)cc4)c4ccccc4c3=O)cc2)C2CCCC2)nc1 (racemic) [Example 11, 6-({[(4-{[4-(4-chlorophenyl)-1-oxophthalazin-2(1H)-yl]-methyl}phenyl)(cyclopentyl)acetyl]amino}methyl)-pyridine-3-carboxylic acid]	300 nM		
O=C(O)CCc1cccc(NC(=O)C(c2ccc(Cn3nnc4ccccc4c3=O)cc2)C2CCCC2)c1 (racemic) [Example 21, 3-{3-[(cyclopentyl{4-[(4-oxo-1,2,3-benzotriazin-3(4H)-yl)methyl]phenyl}acetyl)amino]phenyl}-propanoic acid]	30 nM		
O=C(O)CCc1cccc(NC(=O)C(c2ccc(Cn3nc(-c4ccccc4)oc3=O)cc2)C2CCCC2)c1 (racemic) [Example 22]	300 nM		
Cc1c(CCC(=O)O)cccc1NC(=O)C(c1ccc(CN2CCN(c3cccc(Cl)c3)C2=O)cc1)C1CCCC1 (racemic) [Example 26, 3-(3-{[(4-{[3-(3-chlorophenyl)-2-oxoimidazolidin-1-yl]methyl}phenyl)(cyclopentyl)acetyl]amino}-2-methylphenyl)propanoic acid]	300 nM		
Cc1c(CCC(=O)O)cccc1NC(=O)C(c1ccc(Cn2nnc3ccccc3c2=O)cc1)C1CCCC1 (racemic) [Example 29, 3-{3-[(cyclopentyl{4-[(4-oxo-1,2,3-benzotriazin-3(4H)-yl)methyl]phenyl}acetyl)amino]-2-methyl-phenyl}propanoic acid]	30 nM		
Cc1c(CCC(=O)O)cccc1NC(=O)C(c1ccc(Cn2nc(-c3ccccc3)oc2=O)cc1)C1CCCC1 (racemic) [Example 30, 3-{3-[(cyclopentyl{4-[(2-oxo-5-phenyl-1,3,4-oxadiazol-3(2H)-yl)methyl]phenyl}acetyl)amino]-2-methylphenyl}propanoic acid]	30 nM		
CCC(C)C(C(=O)Nc1cccc(CCC(=O)O)c1)c1ccc(CN2N=C(c3ccccc3)OCC2=O)cc1 (single isomer, unassigned) [Example 62, 3-{3-[(3-Methyl-2-{4-[(5-oxo-2-phenyl-5,6-dihydro-4H-1,3,4-oxadiazin-4-yl)methyl]-phenyl}pentanoyl)amino]phenyl}propanoic acid]	3 nM		
CC(C)C(C(=O)Nc1cccc(CCC(=O)O)c1)c1ccc(CN2N=C(c3ccccc3)OCC2=O)cc1 (single isomer, unassigned) [Example 105, 3-{3-[(3-mcthyl-2-{4-[(5-oxo-2-phcnyl-5,6-dihydro-4H-l,3,4-oxadiazin-4-yl)mcthyl]phenyl}butanoyl)-amino]phcnyl}propanoic acid]	10 nM		
CC(C)C(C(=O)Nc1ccc(CCC(=O)O)cc1)c1ccc(CN2N=C(c3ccccc3)OCC2=O)cc1 (single isomer, unassigned) [Example 106, 3-{4-[(3-mcthyl-2-{4-[(5-oxo-2-phcny1-5,6-dihydro-4H-1,3,4-oxadiazin-4-yl)mcthyl]phenyl}butanoyl)-amino]phcnyl}propanoic acid]	10 nM		
O=C(O)CC[C@H]1CC[C@H](NC(=O)C(c2ccc(CN3N=C(c4ccccc4)OCC3=O)cc2)C2CCCC2)CC1 (single isomer, unassigned) [Example 118, 3-{trans-4-[(cyclopcntyl{4-[(5-oxo-2-phcnyl-5,6-dihydro-4H-1,3,4-oxadiazin-4-yl)mcthyl]phcnyl}acetyl)-amino]cyclohcxyl}propanoic acid]	30 nM		
CC(CC(F)(F)F)C(C(=O)Nc1cccc(CC2(C(=O)O)CC2)c1)c1ccc(CN2N=C(c3ccccc3)OCC2=O)cc1 (single isomer, unassigned) [Example 160, 1-{3-[(5,5,5-trifluoro-3-methyl-2-{4-[(5-oxo-2-phenyl-5,6-dihydro-4H-1,3,4-oxadiazin-4-yl)methyl]phenyl}-pentanoyl)amino]benzyl}cyclopropanecarboxylic acid]	30 nM	3.4 nM	7.46
CC(C(C(=O)Nc1cccc(CC2(C(=O)O)CC2)c1)c1ccc(Cn2nc(C(F)(F)F)ccc2=O)cc1)C(F)(F)F (single isomer, unassigned) [Example 181, 1-(3-{[4,4,4-trifluoro-3-methyl-2-(4-{[6-oxo-3-(trifluoromethyl)pyridazin-1(6H)-yl]methyl}-phenyl)-butanoyl]amino}benzyl)cyclopropanecarboxylic acid]	0.7 nM	1.4 nM	7.16
O=C(O)c1ccc(CNC(=O)C(c2ccc(CN3N=C(c4ccccc4)OCC3=O)cc2)C2CCCC2)cc1 (single isomer, unassigned; ent-4) [Example 38, ent-4-{[(Cyclopentyl{4-[(5-oxo-2-phenyl-5,6-dihydro-4H-1,3,4-oxadiazin-4-yl)methyl]phenyl}acetyl)amino]methyl}benzenecarboxylic acid]	30 nM		
COCC(C)C(C(=O)Nc1cccc(CCC(=O)O)c1C)c1ccc(CN2N=C(c3ccccc3)OCC2=O)cc1 (centres unmarked) [Example 3, 3-{3-[(4-Methoxy-3-methyl-2-{4-[(5-oxo-2-phenyl-5,6-dihydro-4H-1,3,4-oxadiazin-4-yl)-methyl]phenyl}butanoyl)amino]-2-methylphenyl}propanoic acid]	300 nM		
O=C(O)CCc1ccc(Cl)c(NC(=O)C(c2ccc(CN3N=C(c4ccccc4)OCC3=O)cc2)C2CCCC2)c1 (centres unmarked) [Example 187, 3-{4-chloro-3-[(cyclopentyl{4-[(5-oxo-2-phenyl-5,6-dihydro-4H-1,3,4-oxadiazin-4-yl)methyl]-phenyl}acetyl)amino]phenyl}propanoic acid]	1 nM		
